Measured values from ChEMBL document CHEMBL1147552, “Novel CCR1 antagonists with improved metabolic stability” (Bioorg Med Chem Lett, 2004).
Values after ≈ are worked out from the molar mass of the structure shown.

Tests used:
[1] = target: T1, C-C chemokine receptor type 1 (Homo sapiens, UniProt P32246); experiment: Inhibition of CCL3 binding to C-C chemokine receptor type 1
T1 sequence (P32246 whole entry): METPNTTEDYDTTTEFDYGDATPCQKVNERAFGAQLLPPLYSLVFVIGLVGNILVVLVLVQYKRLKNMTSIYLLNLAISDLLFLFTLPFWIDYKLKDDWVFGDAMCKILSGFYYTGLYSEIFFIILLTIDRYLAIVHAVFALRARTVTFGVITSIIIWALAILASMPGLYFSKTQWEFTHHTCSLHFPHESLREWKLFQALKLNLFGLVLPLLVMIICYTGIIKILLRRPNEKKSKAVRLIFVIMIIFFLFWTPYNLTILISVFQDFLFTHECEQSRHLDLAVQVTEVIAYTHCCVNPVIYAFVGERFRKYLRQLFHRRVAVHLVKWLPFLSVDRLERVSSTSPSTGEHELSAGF

Homo sapiens = organism: Homo sapiens; conditions: Liver, Microsome
Description: In vitro oxidative metabolic stability measured by the rate of drug consumption in human liver microsomes as intrinsic clearance values

[2] = Oral bioavailability in monkey; conditions: cercopithecidae, in vivo
[3] = Elimination Half-life of compound was determined in dog; conditions: in vivo
[4] = Volume of distribution of compound was determined in monkey; conditions: cercopithecidae, in vivo
[5] = Aqueous solubility of compound was determined
[6] = Plasma clearance of compound was determined in dog
[7] = Plasma clearance of compound was determined in monkey; conditions: cercopithecidae
[8] = Volume of distribution of compound was determined in dog; conditions: in vivo

SMILES | IC50 [1] | CL (mL.min-1.kg-1) (Homo sapiens) | also measured
CC(C)(F)CCC(C[C@H](O)[C@H](Cc1ccccc1)NC(=O)c1cnc2ccccc2n1)C(=O)NO (stereo partly specified) | 27 nM |  | 
CC(C)(F)CCC(C[C@H](O)[C@H](Cc1ccccc1)NC(=O)c1cnc2ccccc2n1)C(=O)NN (stereo partly specified) | 7 nM | 32.7 | 
CC(C)(F)CCC(C[C@H](O)[C@H](Cc1ccccc1)NC(=O)c1cnc2ccccc2n1)C(=O)NCc1ccccc1 (stereo partly specified) | 850 nM |  | 
CC(C)(O)CCC(C[C@H](O)[C@H](Cc1ccccc1F)NC(=O)c1cnc2ccccc2n1)C(N)=O (stereo partly specified) | 52 nM | 16.5 | 
CN1CCN(C(=O)C(CCC(C)(C)F)C[C@H](O)[C@H](Cc2ccccc2)NC(=O)c2cnc3ccccc3n2)CC1 (stereo partly specified) | 5600 nM | 647 | 
CC(C)(F)CCC(C[C@H](O)[C@H](Cc1ccccc1)NC(=O)c1cnc2ccccc2n1)C(=O)N1CCCC1 (stereo partly specified) | 2320 nM |  | 
CC(C)(O)CCC(C[C@H](O)[C@H](Cc1ccc(F)cc1)NC(=O)c1cnc2ccccc2n1)C(N)=O (stereo partly specified) | > 25000 nM |  | 
CCNC(=O)C(CCC(C)(C)F)C[C@H](O)[C@H](Cc1ccccc1)NC(=O)c1cnc2ccccc2n1 (stereo partly specified) | 75 nM |  | 

The next lines start with results.

IC50 [1] | SMILES | CL (mL.min-1.kg-1) (Homo sapiens) | also measured
9 nM | CC(C)(F)CC[C@H](C[C@H](O)[C@H](Cc1ccccc1)NC(=O)c1cnc2ccccc2n1)C(N)=O |  | 
8 nM | NC(=O)C(C[C@H](O)[C@H](Cc1ccccc1)NC(=O)c1cnc2ccccc2n1)C1CCCCC1 (stereo partly specified) | 242 | 
56 nM | NC(=O)C(C[C@H](O)[C@H](Cc1ccccc1)NC(=O)c1cnc2ccccc2n1)C1(O)CCC(F)(F)CC1 (stereo partly specified) | 6.4 | 
54 nM | NC(=O)C(C[C@H](O)[C@H](Cc1ccccc1)NC(=O)c1cnc2ccccc2n1)C1(O)CCCCC1 (stereo partly specified) | 47.7 | 
20 nM | NC(=O)C(C[C@H](O)[C@H](Cc1ccccc1)NC(=O)c1cnc2ccccc2n1)C1CCC(F)(F)CC1 (stereo partly specified) |  | 
7 nM | O=C(N[C@@H](Cc1ccccc1)[C@@H](O)CC(C(=O)NO)C1CCC(F)(F)CC1)c1cnc2ccccc2n1 (stereo partly specified) | 6.1 | bioavailability [2]: < 1.1%; half-life [3]: 30 min; Vd [4]: 1.8 L/kg; solubility [5]: 12 µg/mL (≈ 23.4 µM); clearance [6]: 38 mL/min/kg; clearance [7]: 33 mL/min/kg; Vd [8]: 1.3 L/kg
580 nM | CC(C)(O)CC[C@H](C[C@H](O)[C@H](Cc1ccccc1)NC(=O)c1cnc2ccccc2n1)C(N)=O | 4.9 | 
3460 nM | NC(=O)C(C[C@H](O)[C@H](Cc1ccccc1)NC(=O)c1cnc2ccccc2n1)C1CCOCC1 (stereo partly specified) |  | 
